Test results from US6543181B1, “Fruit fly attractant compositions” (Iowa State University Research Foundation, Inc., priority 2001, dated 2003).

Columns and labels:
[1] = tested on: Drosophila melanogaster antennae; parameters: key to the marks not given beside the values
[2] = tested on: Drosophila melanogaster adult fruit flies; experiment: Attraction-trapant behavioral bioassay (cup traps in screen cages); assay type: in vivo; settings: for Catches per day (mean ± S.E.): 100-150 flies released
Procedure: Three different sizes of screen cages (w×h×l: 26 cm×26 cm×30 cm; 48×61×61; and 88×36×46) were used for the trapping experiments. Trapping experiments were carried out either in the laboratories, or in nearby green houses.
The attraction-trapant assay traps were constructed from cylindrical, clear plastic jelly cups (4.0 cm I.D. at top, 3.0 cm I.D. bottom; 2.5 cm high) with a tightly fitting paper lid. The lids were pre-drilled with a hole having a diameter of about 2 mm, which was the only aperture through which volatiles from candidate attractants could emanate, and also the only entrance through which attracted flies could enter the trap chamber. In all experiments, a 1-cm-long, 0.5-cm-diameter piece of cotton dental wick was used as the substrate onto which different compositions of potential attractants were loaded for testing, and then the wick was placed in the bottom of the cup and the lid then sealed in position at the beginning of testing.
Traps containing a series of compositions to be compared were tested in a randomized, complete-block design, with one replicate of a treatment series deployed per cage. The traps were placed in an array with usually approximately 15 cm between traps. If three treatments were to be compared (including control), the array took the form of a triangle. If there were four treatments, then the four trap-cups formed a square.
No glue or toxicant was used inside the traps, and captures depended on the ability of the attractant-trapant composition to both attract the fruit flies as well as retain them in the chamber by keeping them from wandering back to the entrance hole on the lid and exiting through it. During these assays, observations of the fruit flies' behavior were often made, and they could routinely be observed flying slowly around the cage before descending to one of the traps on the floor of the cage, landing on it, and then walking more or less directly to the hole on the lid and entering the trap.
[…] […] During this period the trap positions were rotated at several hour intervals in order to minimize any possible trap position effects.

[3] = Table 3, 10 mg in cup trap, traps checked daily for 5 days
[4] = Table 4, ratios of acetic acid and 2-phenylethanol, total lure 10 mg, no water added, checked daily for 5 days

| Structure (SMILES) | Catches per day (mean ± S.E.) [2, 3] | further results |
| --- | --- | --- |
| C=CCc1ccc(OC)c(OC)c1 [1,2-dimethoxy-4-(2-propenyl)-benzene] | – | EAG activity [1]: +++ |
| OCCc1ccccc1 [2-phenylethanol] | 3.15 ± 1.63 | Catches per day (mean ± S.E.) ([2]; Table 3, 1 mg in cup trap, traps checked daily for 5 days): 0.5 ± 0.29; Catches per day (mean ± S.E.) ([2]; Table 3, 5 mg in cup trap, traps checked daily for 5 days): 1.25 ± 0.63; Catches per day (mean ± S.E.) [2, 4]: 0 ± 0 |
| CC(=O)OCCc1ccccc1 [2-phenylethyl acetate] | 1.87 ± 0.81 | – |
| CC(=O)O [Acetic acid] | – | Catches per day (mean ± S.E.) [2, 4]: 3.0 ± 1.08; Trap catches ([2]; Table 13, effect of ethyl acetate, 8 replicates): 0.25 ± 0.16 |
| CCOC(=O)C=Cc1ccccc1 [Ethyl cinnamate] | 0.75 ± 0.49 | – |
| CCCCOC(C)=O [butyl acetate] | – | EAG activity [1]: +++ |
| CCOC(=O)c1ccccc1 [ethyl benzoate] | 0.25 ± 0.16 | – |
| CCOC(=O)c1ccccc1O [ethyl salicylate] | 0.37 ± 0.18 | – |
| CCOC(=O)Cc1ccccc1 [ethylphenyl acetate] | 1.5 ± 0.5 | – |
| CC(=O)OCc1ccccc1 [phenylmethyl acetate] | 0.5 ± 0.27 | – |
